# Data as given in patent US9732119B2, “Immunomodulators” (BRISTOL-MYERS SQUIBB COMPANY, priority 2014, dated 2017).
# Positions of bridges follow the written chain, without caps; N, C: chain ends. Non-standard residues stand in square brackets, D forms with d. Residues, ends and D or L forms follow the SMILES beside them. Trp(1-CH2COOH) = N[C@@H](Cc1cn(CC(=O)O)c2ccccc12)C(=O)O; Phe(4-Cl) = N[C@@H](Cc1ccc(Cl)cc1)C(=O)O; Phe(4-F) = N[C@@H](Cc1ccc(F)cc1)C(=O)O; Phe(4-Me) = Cc1ccc(C[C@H](N)C(=O)O)cc1; Hyp = O=C(O)[C@@H]1C[C@@H](O)CN1; Aad = N[C@@H](CCCC(=O)O)C(=O)O; NMeNle = CCCC[C@H](NC)C(=O)O; dOrn = NCCC[C@@H](N)C(=O)O; Pip = O=C(O)[C@@H]1CCCCN1; NMeA = CN[C@@H](C)C(=O)O; Orn = NCCC[C@H](N)C(=O)O; Dab = NCC[C@H](N)C(=O)O; Dap = NC[C@H](N)C(=O)O; Ava = NCCCCC(=O)O
# Biological target: T1, PD-1-Ig binding to PD-L1-TVMV-His (PD-L1-His) (Homo sapiens, UniProt Q9NZQ7)
# T1 construct: hPDL1(19-239)-TVMV-His; made in house; host or cells: HEK293T cells
# Test: PD-1/PD-L1 Homogenous Time-Resolved Fluorescence (HTRF) binding assay
# Conditions: PD-1-Ig (20 nM) / PD-L1-His (10 nM); numeric values
# In short: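 HTRF competition: compound pre-incubated 15 min with PD-L1-His (10 nM final), then PD-1-Ig (20 nM final) added for 15 min in dPBS, 0.1% BSA, 0.05% Tween-20. Detection with Eu-cryptate anti-Ig (1 nM) and APC anti-His (20 nM) antibodies.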
# T1 sequence (Q9NZQ7 with tags, fused parts or gaps): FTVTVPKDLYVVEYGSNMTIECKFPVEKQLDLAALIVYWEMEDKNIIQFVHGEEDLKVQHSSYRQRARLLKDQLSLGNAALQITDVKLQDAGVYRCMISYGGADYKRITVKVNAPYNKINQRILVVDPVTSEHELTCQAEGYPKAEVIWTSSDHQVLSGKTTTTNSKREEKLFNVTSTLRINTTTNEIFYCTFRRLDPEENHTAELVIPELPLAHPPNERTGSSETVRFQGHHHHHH
row,SMILES,IC50 [nM]
1,CCCC[C@H]1C(=O)N(C)[C@@H](CCCC)C(=O)N[C@@H](CC(C)C)C(=O)N[C@H](C(N)=O)CNCC(=O)N[C@@H](Cc2ccc(F)cc2)C(=O)N2CCCC[C@H]2C(=O)N[C@@H](CC(N)=O)C(=O)N2CCC[C@H]2C(=O)N[C@@H](Cc2c[nH]cn2)C(=O)N[C@@H](CCC(=O)O)C(=O)N2C[C@H](O)C[C@H]2C(=O)N[C@@H](Cc2c[nH]c3ccccc23)C(=O)N[C@@H](C)C(=O)N[C@@H](Cc2cn(CC(=O)O)c3ccccc23)C(=O)N1C [Example 9052],10

# Same assay, conditions: PD-1-Ig (20 nM) / PD-L1-His (10 nM); range classes
row,SMILES,IC50 [nM]
1,CCCC[C@H]1C(=O)N(C)[C@@H](CCCC)C(=O)N[C@@H](CCC(=O)O)C(=O)N[C@H](C(N)=O)CNCC(=O)N[C@@H](Cc2ccc(O)cc2)C(=O)N2CCCC[C@H]2C(=O)N[C@@H](CC(N)=O)C(=O)N2CCC[C@H]2C(=O)N[C@@H](Cc2c[nH]cn2)C(=O)N[C@@H](CCC(=O)O)C(=O)N2C[C@H](O)C[C@H]2C(=O)N[C@@H](Cc2c[nH]c3ccccc23)C(=O)N[C@@H](C)C(=O)N[C@@H](Cc2cn(CC(=O)O)c3ccccc23)C(=O)N1C [Example 9055],1 to 9.9
2,CCCC[C@H]1C(=O)N(C)[C@@H](CCCC)C(=O)N[C@@H](CCC(=O)O)C(=O)N[C@H](C(N)=O)CCCC(=O)N[C@@H](Cc2ccc(C)cc2)C(=O)N2CCCC[C@H]2C(=O)N[C@@H](CC(N)=O)C(=O)N2CCC[C@H]2C(=O)N[C@@H](CN)C(=O)N[C@@H](CC(C)C)C(=O)N2C[C@H](O)C[C@H]2C(=O)N[C@@H](Cc2c[nH]c3ccccc23)C(=O)N[C@@H](CCN)C(=O)N[C@@H](Cc2cn(CC(=O)O)c3ccccc23)C(=O)N1C [Example 10562] ([Phe(4-Me)][Pip]NP[Dap]L[Hyp]W[Dab][Trp(1-CH2COOH)][NMeNle][NMeNle]E[Aad]-NH2; lactam N-14),10 to 99
3,CCCC[C@H]1C(=O)N(C)[C@@H](CCCC)C(=O)N[C@@H](CC(C)C)C(=O)NCCC[C@H](N)C(=O)N[C@@H](Cc2ccc(Cl)cc2)C(=O)N2CCCC[C@H]2C(=O)N[C@@H](CC(N)=O)C(=O)N2CCC[C@H]2C(=O)N[C@@H](CN)C(=O)N[C@@H](CCC(=O)O)C(=O)N2C[C@H](O)C[C@H]2C(=O)N[C@@H](Cc2c[nH]c3ccccc23)C(=O)N[C@@H](CCN)C(=O)N[C@@H](Cc2cn(CC(=O)O)c3ccccc23)C(=O)N1C [Example 10546] (H-[Orn][Phe(4-Cl)][Pip]NP[Dap]E[Hyp]W[Dab][Trp(1-CH2COOH)][NMeNle][NMeNle]L; lactam 1-C),10 to 99
4,CCCC[C@H]1C(=O)N(C)[C@@H](CCCC)C(=O)N[C@@H](CC(C)C)C(=O)NCCCCC(=O)N[C@@H](Cc2ccc(OC)cc2)C(=O)N2CCCC[C@H]2C(=O)N[C@@H](CC(N)=O)C(=O)N2CCC[C@H]2C(=O)N[C@@H](CN)C(=O)N[C@@H](CCC(=O)O)C(=O)N2C[C@H](O)C[C@H]2C(=O)N[C@@H](Cc2c[nH]c3ccccc23)C(=O)N[C@@H](CCN)C(=O)N[C@@H](Cc2cn(CC(=O)O)c3ccccc23)C(=O)N1C [Example 10542] (cyclo([Ava]Y(Me)[Pip]NP[Dap]E[Hyp]W[Dab][Trp(1-CH2COOH)][NMeNle][NMeNle]L)),1 to 9.9
5,CCCC[C@H]1C(=O)N(C)[C@@H](CCCC)C(=O)N[C@@H](CC(C)C)C(=O)NCC(=O)NCC(=O)N[C@@H](Cc2ccc(O)cc2)C(=O)N(C)[C@@H](C)C(=O)N[C@@H](CC(N)=O)C(=O)N2CCC[C@H]2C(=O)N[C@@H](CN)C(=O)N[C@@H](CC(C)C)C(=O)N2C[C@H](O)C[C@H]2C(=O)N[C@@H](Cc2c[nH]c3ccccc23)C(=O)N[C@@H](CCN)C(=O)N[C@@H](Cc2c[nH]c3ccccc23)C(=O)N1C [Example 5001] (cyclo([Dab]W[NMeNle][NMeNle]LGGY[NMeA]NP[Dap]L[Hyp]W)),1 to 9.9
6,CCCC[C@H]1C(=O)N(C)[C@@H](CCCC)C(=O)N[C@@H](CCC(=O)O)C(=O)N[C@H](C(N)=O)CNCC(=O)N[C@@H](Cc2ccc(O)cc2)C(=O)N2CCCC[C@H]2C(=O)N[C@@H](CC(N)=O)C(=O)N2CCC[C@H]2C(=O)N[C@@H](CCC(N)=O)C(=O)N[C@@H](CC(C)C)C(=O)N2C[C@H](O)C[C@H]2C(=O)N[C@@H](Cc2c[nH]c3ccccc23)C(=O)N[C@@H](CC(N)=O)C(=O)N[C@@H](Cc2cn(CC(=O)O)c3ccccc23)C(=O)N1C [Example 9042],1 to 9.9
7,CCCC[C@H]1C(=O)N(C)[C@@H](CCCC)C(=O)N[C@@H](CC(C)C)C(=O)NCC(=O)NCC(=O)N[C@@H](Cc2ccc(O)cc2)C(=O)N(C)[C@@H](C)C(=O)N[C@@H](CC(N)=O)C(=O)N2CCC[C@H]2C(=O)N[C@@H](CN)C(=O)N[C@@H](CC(C)C)C(=O)N2C[C@H](O)C[C@H]2C(=O)N[C@@H](Cc2c[nH]c3ccccc23)C(=O)N[C@@H](CCN)C(=O)N[C@@H](Cc2cn(CC(=O)O)c3ccccc23)C(=O)N1C [Example 5002] (cyclo([Dab][Trp(1-CH2COOH)][NMeNle][NMeNle]LGGY[NMeA]NP[Dap]L[Hyp]W)),1 to 9.9
8,CCCC[C@H]1C(=O)N(C)[C@@H](CCCC)C(=O)N[C@@H](CCC(=O)O)C(=O)N[C@H](C(N)=O)CCCC(=O)N[C@@H](Cc2ccc(F)cc2)C(=O)N2CCCC[C@H]2C(=O)N[C@@H](CC(N)=O)C(=O)N2CCC[C@H]2C(=O)N[C@@H](CN)C(=O)N[C@@H](CC(C)C)C(=O)N2C[C@H](O)C[C@H]2C(=O)N[C@@H](Cc2c[nH]c3ccccc23)C(=O)N[C@@H](CCN)C(=O)N[C@@H](Cc2cn(CC(=O)O)c3ccccc23)C(=O)N1C [Example 10564] ([Phe(4-F)][Pip]NP[Dap]L[Hyp]W[Dab][Trp(1-CH2COOH)][NMeNle][NMeNle]E[Aad]-NH2; lactam N-14),10 to 99
9,CCCC[C@H]1C(=O)N(C)[C@@H](CCCC)C(=O)N[C@@H](CC(C)C)C(=O)N[C@H](C(N)=O)COCC(=O)N[C@@H](Cc2ccc(C)cc2)C(=O)N2CCCC[C@H]2C(=O)N[C@@H](CC(N)=O)C(=O)N2CCC[C@H]2C(=O)N[C@@H](CN)C(=O)N[C@@H](CCC(=O)O)C(=O)N2C[C@H](O)C[C@H]2C(=O)N[C@@H](Cc2c[nH]c3ccccc23)C(=O)N[C@@H](CCN)C(=O)N[C@@H](Cc2cn(CC(=O)O)c3ccccc23)C(=O)N1C [Example 10538],1 to 9.9
10,CCCC[C@H]1C(=O)N(C)[C@@H](CCCC)C(=O)N[C@@H](CC(C)C)C(=O)N[C@@H](C)C(=O)NCC(=O)N[C@@H](Cc2ccc(O)cc2)C(=O)N(C)[C@@H](C)C(=O)N[C@@H](CC(N)=O)C(=O)N2CCC[C@H]2C(=O)N[C@@H](CN)C(=O)N[C@@H](CC(C)C)C(=O)N2C[C@H](O)C[C@H]2C(=O)N[C@@H](Cc2c[nH]c3ccccc23)C(=O)N[C@@H](CCN)C(=O)N[C@@H](Cc2c[nH]c3ccccc23)C(=O)N1C [Example 5006] (cyclo(AGY[NMeA]NP[Dap]L[Hyp]W[Dab]W[NMeNle][NMeNle]L)),10 to 99
11,CCCC[C@H]1C(=O)N(C)[C@@H](CCCC)C(=O)N[C@@H](CC(C)C)C(=O)N2CCC[C@@H]2C(=O)NCC(=O)N[C@@H](Cc2ccc(O)cc2)C(=O)N(C)[C@@H](C)C(=O)N[C@@H](CC(N)=O)C(=O)N2CCC[C@H]2C(=O)N[C@@H](CN)C(=O)N[C@@H](CC(C)C)C(=O)N2C[C@H](O)C[C@H]2C(=O)N[C@@H](Cc2c[nH]c3ccccc23)C(=O)N[C@@H](CCN)C(=O)N[C@@H](Cc2c[nH]c3ccccc23)C(=O)N1C [Example 5008] (cyclo([Dab]W[NMeNle][NMeNle]L[dP]GY[NMeA]NP[Dap]L[Hyp]W)),1 to 9.9
12,CCCC[C@H]1C(=O)N(C)[C@@H](CCCC)C(=O)N[C@@H](CCC(=O)O)C(=O)N[C@H](C(N)=O)CNCC(=O)N[C@@H](Cc2ccc(F)cc2)C(=O)N2CCCC[C@H]2C(=O)N[C@@H](CC(N)=O)C(=O)N2CCC[C@H]2C(=O)N[C@@H](Cc2c[nH]cn2)C(=O)N[C@@H](CC(=O)O)C(=O)N2C[C@H](O)C[C@H]2C(=O)N[C@@H](Cc2c[nH]c3ccccc23)C(=O)N[C@@H](C)C(=O)N[C@@H](Cc2cn(CC(=O)O)c3ccccc23)C(=O)N1C [Example 9057],1 to 9.9
13,CCCC[C@H]1C(=O)N(C)[C@@H](CCCC)C(=O)N[C@@H](CC(C)C)C(=O)N[C@H](C(N)=O)COCC(=O)N[C@@H](Cc2ccc(F)cc2)C(=O)N2CCCC[C@H]2C(=O)N[C@@H](CC(N)=O)C(=O)N2CCC[C@H]2C(=O)N[C@@H](CN)C(=O)N[C@@H](CCC(=O)O)C(=O)N2C[C@H](O)C[C@H]2C(=O)N[C@@H](Cc2c[nH]c3ccccc23)C(=O)N[C@@H](CCN)C(=O)N[C@@H](Cc2cn(CC(=O)O)c3ccccc23)C(=O)N1C [Example 10531],1 to 9.9
14,CCCC[C@H]1C(=O)N(C)[C@@H](CCCC)C(=O)N[C@@H](CC(C)C)C(=O)N[C@H](C(=O)NCC(N)=O)CCCC(=O)N[C@@H](Cc2ccc(O)cc2)C(=O)N(C)[C@@H](C)C(=O)N[C@@H](CC(=O)O)C(=O)N2CCC[C@H]2C(=O)N[C@@H](Cc2c[nH]cn2)C(=O)N[C@@H](CCCCN)C(=O)N2C[C@H](O)C[C@H]2C(=O)N[C@@H](Cc2c[nH]c3ccccc23)C(=O)N[C@@H](CCCCN)C(=O)N[C@@H](Cc2cn(CC(=O)O)c3ccccc23)C(=O)N1C [Example 10516] (Y[NMeA]DPHK[Hyp]WK[Trp(1-CH2COOH)][NMeNle][NMeNle]L[Aad]G-NH2; lactam N-14),10 to 99
15,CCCC[C@H]1C(=O)N(C)[C@@H](CCCC)C(=O)N[C@@H](CC(C)C)C(=O)NCCC[C@@H](N)C(=O)N[C@@H](Cc2ccc(C)cc2)C(=O)N2CCCC[C@H]2C(=O)N[C@@H](CC(N)=O)C(=O)N2CCC[C@H]2C(=O)N[C@@H](CN)C(=O)N[C@@H](CCC(=O)O)C(=O)N2C[C@H](O)C[C@H]2C(=O)N[C@@H](Cc2c[nH]c3ccccc23)C(=O)N[C@@H](CCN)C(=O)N[C@@H](Cc2cn(CC(=O)O)c3ccccc23)C(=O)N1C [Example 10560] (H-[dOrn][Phe(4-Me)][Pip]NP[Dap]E[Hyp]W[Dab][Trp(1-CH2COOH)][NMeNle][NMeNle]L; lactam 1-C),10 to 99
